This note sets out measurements from ChEMBL document CHEMBL1781945, “A new series of 3-phenylcoumarins as potent and selective MAO-B inhibitors” (Bioorg Med Chem Lett, 2009).

Data set [1] has as its target T1, Amine oxidase [flavin-containing] A (Homo sapiens, UniProt P21397).
T1 sequence (P21397 whole entry): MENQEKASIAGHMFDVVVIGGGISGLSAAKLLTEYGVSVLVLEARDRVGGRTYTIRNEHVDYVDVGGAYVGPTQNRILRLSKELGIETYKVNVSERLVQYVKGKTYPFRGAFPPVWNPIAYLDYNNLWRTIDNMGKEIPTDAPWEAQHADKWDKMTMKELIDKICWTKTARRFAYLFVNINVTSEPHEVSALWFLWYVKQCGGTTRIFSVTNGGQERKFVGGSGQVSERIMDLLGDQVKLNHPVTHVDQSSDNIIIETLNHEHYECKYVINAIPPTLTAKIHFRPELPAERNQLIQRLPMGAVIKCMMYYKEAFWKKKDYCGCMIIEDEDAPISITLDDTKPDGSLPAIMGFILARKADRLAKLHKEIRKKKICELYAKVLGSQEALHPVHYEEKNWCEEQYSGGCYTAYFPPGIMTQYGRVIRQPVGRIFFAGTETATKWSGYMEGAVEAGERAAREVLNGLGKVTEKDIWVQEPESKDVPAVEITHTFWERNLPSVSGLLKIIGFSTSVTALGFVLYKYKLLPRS
The experiment in a line: Inhibition of human recombinant MAOA expressed in BTI insect cells at 100 uM using p-tyramine substrate by fluorometric method.

For data set [2], the species on record is Homo sapiens. The experiment in a line: Selectivity index, ratio of IC50 for human recombinant MAOA to IC50 for human recombinant MAOB.
Data set [3] has as its target T2, Amine oxidase [flavin-containing] B (Homo sapiens, UniProt P27338).
T2 sequence (P27338 whole entry): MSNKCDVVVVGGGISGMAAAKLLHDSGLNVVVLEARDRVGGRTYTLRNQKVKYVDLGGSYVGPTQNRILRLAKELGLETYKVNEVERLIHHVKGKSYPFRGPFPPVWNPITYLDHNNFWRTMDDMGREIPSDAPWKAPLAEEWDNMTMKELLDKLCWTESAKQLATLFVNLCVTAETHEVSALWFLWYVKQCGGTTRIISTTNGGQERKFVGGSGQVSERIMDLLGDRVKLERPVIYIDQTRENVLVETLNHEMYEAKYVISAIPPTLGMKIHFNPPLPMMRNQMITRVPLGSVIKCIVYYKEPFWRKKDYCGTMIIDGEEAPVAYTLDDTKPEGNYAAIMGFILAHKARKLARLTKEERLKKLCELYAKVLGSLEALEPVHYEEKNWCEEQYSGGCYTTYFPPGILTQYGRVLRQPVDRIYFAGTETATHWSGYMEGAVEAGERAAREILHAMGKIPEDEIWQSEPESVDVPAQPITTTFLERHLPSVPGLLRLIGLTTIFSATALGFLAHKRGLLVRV
The experiment in a line: Inhibition of human recombinant MAOB expressed in BTI insect cells using p-tyramine substrate by fluorometric method.

Structures are written as SMILES.

Consider `COc1cc(OC)cc(-c2cc3cc(C)ccc3oc2=O)c1`, for which, in data set [1], the “inhibition (INH)” value is on record as “Not Active”. For the same compound, the Ratio IC50 in data set [2] was above 11100. Further, the IC50 in data set [3] came out at 8.98 nM.
Turning to `COc1ccc(-c2cc3cc(C)ccc3oc2=O)cc1`, the “inhibition (INH)” value in data set [1] is recorded as “Not Active”. Further, the Ratio IC50 in data set [2] was above 7660. The IC50 in data set [3] turned out to be 13.1 nM.
On to `COc1cc(-c2cc3cc(C)ccc3oc2=O)cc(OC)c1OC`, for which the “inhibition (INH)” value in data set [1] is reported as “Not Active”. The Ratio IC50 in data set [2] is above 623. The IC50 in data set [3] stood at 161 nM.
Take `Cc1ccc2oc(=O)c(-c3ccccc3)cc2c1`: the “inhibition (INH)” value in data set [1] is “Not Active”. Further, the Ratio IC50 in data set [2] is above 352. Besides, the IC50 in data set [3] stood at 284 nM.
